Two compounds from patent publication US20230173077A1 (AJK BIOPHARMACEUTICAL, LLC, priority 2020, published 2023) can be followed below.

The term EC50 denotes the concentration that produces a half-maximal response.

Each structure is given as a SMILES string. Read-outs that look alike come from different tables or passages of the source.

The assay deals with HCoV-229E. In words: Antiviral activity and toxicity against HCoV-229E. It counts as cell-based.

Under “Human coronavirus 229E”, `CCC(CC)COC(=O)[C@H](C)N[P@](=O)(OC[C@H]1O[C@@](C#N)(c2ccc3c(N)ncnn23)[C@H](O)[C@@H]1O)Oc1ccccc1` [RDV, Remdesivir] gave an EC50 of 0.07 µM.

The compound `CCCCCCCCCCCCCC(=O)OCC1OC(n2cc(F)c(N)nc2=O)CS1` (centres unmarked) [5′-O-tetradecanoyl ester conjugate of 2′,3′-dideoxy-5-fluoro-3′-thiacytidine] yielded an EC50 of 82 µM.
